# Test results reported in patent publication US20030100567A1, “Tyrosine kinase inhibitors” (priority 2001, published 2003).
# How the values were obtained:
# Conditions in all cases: in vivo
# Pharmacokinetics in dog = assay: Pharmacokinetics in dog
# Pharmacokinetics in rat = assay: Pharmacokinetics in rat
# [1] = Pharmacokinetics in rhesus monkey
SMILES,clearance (Pharmacokinetics in dog) [mL/min/kg],half-life (Pharmacokinetics in dog) [h],bioavailability (Pharmacokinetics in dog) [%],clearance (Pharmacokinetics in rat) [mL/min/kg],half-life (Pharmacokinetics in rat) [h],bioavailability [1] [%],clearance [1] [mL/min/kg],half-life [1] [h],bioavailability (Pharmacokinetics in rat) [%]
N#Cc1cnc(Nc2cc(CN3CCN(C(N)=O)CC3)ccn2)s1,2.6,2.1,,,,,,,
CN(C)C(=O)N1CCN(Cc2ccnc(Nc3ncc(C#N)s3)c2)CC1,3.6,3.4,49,15.5,1.6,,,,
"CNC(=O)N1CCN(Cc2ccnc(Nc3ncc(C#N)s3)c2)CC1 [Compound 4-4, 4-[2-(5-cyano-thiazol-2-ylamino)-pyridin-4-ylmethyl]-piperazine-1-carboxylic acid methylamide]",0.5,17.4,99,10.7,1.9,43,13.4,1.7,49

# The next lines start with the values.
clearance (Pharmacokinetics in dog) [mL/min/kg],half-life (Pharmacokinetics in dog) [h],bioavailability (Pharmacokinetics in dog) [%],clearance (Pharmacokinetics in rat) [mL/min/kg],half-life (Pharmacokinetics in rat) [h],bioavailability [1] [%],clearance [1] [mL/min/kg],half-life [1] [h],bioavailability (Pharmacokinetics in rat) [%],SMILES
14,1.4,,,,,,,,CC(=O)N1CCN(Cc2ccnc(Nc3ncc(C#N)s3)c2C)CC1
1.8,6.3,95,16.3,1.1,67,3,5.5,70,"CS(=O)(=O)C1CCN(Cc2ccnc(Nc3ncc(C#N)s3)c2)CC1 [Compound 5-6, 2-[(4-{[4-(methylsulfonyl)piperidin-1-yl]methyl}pyridin-2-yl)amino]-1,3-thiazole-5-carbonitrile]"
